Test system: female Mastrus ridibundus antenna
Experiment: coupled gas chromatographic-electroantennographic detection (GC-EAD)
Conditions: Porapak Q extract of cocoon-spinning larvae; FIG. 2
Excerpt: Aliquots of 20 CSLHE of Porapak Q-captured volatiles were subjected to analysis by coupled gas chromatographic-electroantennographic detection (GC-EAD) (Arm et al. 1975) using an antenna of Mastrus ridibundus, a specialist parasitic wasp of C. pomonella prepupae, as the electroantennographic detector. Using antennae from female M. ridibundus, instead of C. pomonella larvae, in these analyses was necessary because the antennae of C. pomonella larvae are too small for electrophysiolocial studies. It was also justified because host-seeking female M. ridibundus respond to the pheromone produced by cocoon-spinning C. pomonella larvae. In these GC-EAD analyses, 10 components (8 visible in FIG. 2) elicited responses from M. ridibundus antennae.
FIG. 2 illustrates flame ionization detector (FID) and electroantennographic detector (EAD: female Mastrus ridibundus antenna) responses to 10 CSLHE of Porapak Q extract. Chromatography: Hewlett Packard (HP) 5890A gas chromatograph equipped with a fused silica column (30 m×0.32 mm ID) coated with DB-23 (J & W Scientific, Folsom, Calif. 95630, USA); linear flow velocity of carrier gas: 35 cm/sec; injector and FID detector temperature: 240° C.; temperature program: 1 min at 50° C., 10° C./min to 220° C. […]

## C=C(C)C1CC=C(C)CC1 (single isomer, unassigned; (+)) [(+)-limonene]
  electroantennographic detector (EAD) response: not antenally active
